According to patent US11939361B2, “Compositions of peptide inhibitors of Interleukin-23 receptor” (Janssen Pharmaceutica NV, priority 2020, dated 2024):

Columns and labels:
clinical = details: human, in vivo
[1] = Rat PK Study 1: intraduodenal/intracolonic dosing with absorption enhancers; assay type: in vivo, Sprague Dawley rats; details: for AUC(0-inf) / AUC(0-t) / Cmax / Tmax: male, Sprague Dawley, plasma, 10 mg/kg
Protocol: In this Example, a screen of various absorption enhancers was assessed. […] The following absorption enhancers were tested: sodium caprate (NaCl0), sodium salcaprozate (SNAC), sucrose laureate, Peptelligence (proprietary technology from Enteris Pharma-undisclosed composition) and Labrasol. The solutions were dosed by intracolonic (IC) or intraduodenal (ID) injection to rats. […] NaCl0 gave the highest systemic exposure followed by Peptelligence, then Labrasol, then SNAC, and finally sucrose laureate. Accordingly, sodium caprate was determined to be a preferred absorption enhancer. […] Therefore, the systemic exposure is likely to be high enough to afford systemic activity.
The following absorption enhancers were evaluated: sodium caprate (NaCl0, 100 mg/kg), SNAC (100 mg/kg), sucrose laurate (100 mg/kg), Enteris A (proprietary technology of Enteris Pharma) (60 mg/kg), and Labrasol (100 mg/kg).

[2] = other: intracolonic, IC dose 10 mg/kg, Enteris A 60 mg/kg
[3] = other: intracolonic, IC dose 10 mg/kg, Labrasol 100 mg/kg
[4] = other: intracolonic, IC dose 10 mg/kg, NaC10 100 mg/kg
[5] = other: intracolonic, IC dose 10 mg/kg, SNAC 100 mg/kg
[6] = other: intracolonic, IC dose 10 mg/kg, Sucrose laurate 100 mg/kg
[7] = other: intracolonic, IC dose 10 mg/kg, no absorption enhancer
[8] = other: intraduodenal, ID dose 10 mg/kg, Enteris A 60 mg/kg
[9] = other: intraduodenal, ID dose 10 mg/kg, Labrasol 100 mg/kg
[10] = other: intraduodenal, ID dose 10 mg/kg, NaC10 100 mg/kg
[11] = other: intraduodenal, ID dose 10 mg/kg, SNAC 100 mg/kg
[12] = other: intraduodenal, ID dose 10 mg/kg, Sucrose laurate 100 mg/kg
[13] = other: intraduodenal, ID dose 10 mg/kg, no absorption enhancer

For `CC(=O)NCCCC[C@@H]1NC(=O)[C@H](Cc2c[nH]c3c(C)cccc23)NC(=O)[C@H]([C@@H](C)O)NC(=O)[C@H](CC(N)=O)NC(=O)[C@@H](NC(C)=O)C(C)(C)SSC(C)(C)[C@@H](C(=O)N[C@@H](Cc2ccc(OCCN)cc2)C(=O)N[C@@H](Cc2ccc3ccccc3c2)C(=O)NC2(C(=O)N[C@@H](CCC(=O)O)C(=O)N[C@@H](CC(N)=O)C(=O)N[C@@H](Cc3cccnc3)C(=O)N(C)CC(N)=O)CCOCC2)NC1=O` [SEQ ID NO: 1, Ac-[Pen]*—N-T-[W(7-Me)]-[Lys(Ac)]-[Pen]*-Phe[4-(2-aminoethoxy)]-[2-Nal]-[THP]-E-N-[3-Pal]-Sarc-NH2], which half-life (clinical) is on record?
Its half-life is 600 to 720 min.

What about the AUC (clinical; po, 10 mg) of the same compound?
The AUC was 1.56 ng·h/mL.

And the AUC (clinical; po, 25 mg)?
The AUC was 6.47 ng·h/mL.

What about the AUC (clinical; po, 100 mg) of the same compound?
The AUC was 20.8 ng·h/mL.

What about the AUC (clinical; po, 300 mg) of the same compound?
The AUC was 51 ng·h/mL.

What about the half-life (clinical; po, 300 mg) of the same compound?
Its half-life is 557 min.

What about the AUC (clinical; po, 1000 mg) of the same compound?
The AUC was 141 ng·h/mL.

And the Cmax (clinical; po, 1000 mg)?
The Cmax was 8.3 ng/mL.

What about the Tmax (clinical; po, 1000 mg) of the same compound?
Its Tmax is 270 min.

What about the Fabs ([1]; IC dose 10 mg/kg, Enteris A 60 mg/kg) of the same compound?
The Fabs was 2.98%.

And the Fabs ([1]; IC dose 10 mg/kg, Labrasol 100 mg/kg)?
Its Fabs is 5.82%.

And the Fabs ([1]; IC dose 10 mg/kg, NaC10 100 mg/kg)?
Its Fabs is 6.36%.

What about the Fabs ([1]; IC dose 10 mg/kg, SNAC 100 mg/kg) of the same compound?
The Fabs was 1.64%.

And the Fabs ([1]; IC dose 10 mg/kg, Sucrose laurate 100 mg/kg)?
Its Fabs is 0.939%.

And the Fabs ([1]; IC dose 10 mg/kg, no absorption enhancer)?
Its Fabs is 0.0531%.

What about the Fabs ([1]; ID dose 10 mg/kg, Enteris A 60 mg/kg) of the same compound?
Its Fabs is 5.06%.

What about the Fabs ([1]; ID dose 10 mg/kg, Labrasol 100 mg/kg) of the same compound?
The Fabs was 3.26%.

And the Fabs ([1]; ID dose 10 mg/kg, NaC10 100 mg/kg)?
The Fabs was 6.24%.

What about the Fabs ([1]; ID dose 10 mg/kg, SNAC 100 mg/kg) of the same compound?
The Fabs was 1.13%.

And the Fabs ([1]; ID dose 10 mg/kg, Sucrose laurate 100 mg/kg)?
The Fabs was 0.764%.

And the Fabs ([1]; ID dose 10 mg/kg, no absorption enhancer)?
Its Fabs is 0.360%.

And the AUC(0-inf) [1, 2]?
The AUC(0-inf) was 567 ng·h/mL.

And the AUC(0-t) [1, 2]?
Its AUC(0-t) is 561 ng·h/mL.

And the Cmax [1, 2]?
Its Cmax is 626 ng/mL.

And the Tmax [1, 2]?
Its Tmax is 15 min.

What about the AUC(0-inf) [1, 3] of the same compound?
The AUC(0-inf) was 1110 ng·h/mL.

And the AUC(0-t) [1, 3]?
Its AUC(0-t) is 1100 ng·h/mL.

And the Cmax [1, 3]?
Its Cmax is 976 ng/mL.

And the Tmax [1, 3]?
The Tmax was 15 min.

And the AUC(0-inf) [1, 4]?
The AUC(0-inf) was 1210 ng·h/mL.

And the AUC(0-t) [1, 4]?
Its AUC(0-t) is 1210 ng·h/mL.

And the Cmax [1, 4]?
Its Cmax is 1030 ng/mL.

And the Tmax [1, 4]?
The Tmax was 20 min.

What about the AUC(0-inf) [1, 5] of the same compound?
The AUC(0-inf) was 312 ng·h/mL.

What about the AUC(0-t) [1, 5] of the same compound?
The AUC(0-t) was 309 ng·h/mL.

And the Cmax [1, 5]?
The Cmax was 309 ng/mL.

And the Tmax [1, 5]?
Its Tmax is 20 min.

What about the AUC(0-inf) [1, 6] of the same compound?
Its AUC(0-inf) is 179 ng·h/mL.

And the AUC(0-t) [1, 6]?
Its AUC(0-t) is 176 ng·h/mL.

What about the Cmax [1, 6] of the same compound?
Its Cmax is 191 ng/mL.

What about the Tmax [1, 6] of the same compound?
The Tmax was 15 min.

And the Cmax [1, 7]?
The Cmax was 4.99 ng/mL.

And the Tmax [1, 7]?
Its Tmax is 35 min.

And the AUC(0-inf) [1, 8]?
The AUC(0-inf) was 964 ng·h/mL.

What about the AUC(0-t) [1, 8] of the same compound?
Its AUC(0-t) is 958 ng·h/mL.

And the Cmax [1, 8]?
The Cmax was 988 ng/mL.

What about the Tmax [1, 8] of the same compound?
The Tmax was 15 min.

What about the AUC(0-inf) [1, 9] of the same compound?
The AUC(0-inf) was 621 ng·h/mL.

What about the AUC(0-t) [1, 9] of the same compound?
The AUC(0-t) was 617 ng·h/mL.

What about the Cmax [1, 9] of the same compound?
The Cmax was 625 ng/mL.

And the Tmax [1, 9]?
The Tmax was 15 min.

And the AUC(0-inf) [1, 10]?
Its AUC(0-inf) is 1190 ng·h/mL.

What about the AUC(0-t) [1, 10] of the same compound?
The AUC(0-t) was 1190 ng·h/mL.

And the Cmax [1, 10]?
Its Cmax is 1220 ng/mL.

What about the Tmax [1, 10] of the same compound?
The Tmax was 15 min.

What about the AUC(0-inf) [1, 11] of the same compound?
Its AUC(0-inf) is 215 ng·h/mL.

And the AUC(0-t) [1, 11]?
The AUC(0-t) was 210 ng·h/mL.

What about the Cmax [1, 11] of the same compound?
Its Cmax is 209 ng/mL.

What about the Tmax [1, 11] of the same compound?
Its Tmax is 15 min.

What about the AUC(0-inf) [1, 12] of the same compound?
The AUC(0-inf) was 145 ng·h/mL.

What about the AUC(0-t) [1, 12] of the same compound?
The AUC(0-t) was 141 ng·h/mL.

And the Cmax [1, 12]?
The Cmax was 107 ng/mL.

What about the Tmax [1, 12] of the same compound?
Its Tmax is 15 min.

And the AUC(0-inf) [1, 13]?
The AUC(0-inf) was 68.6 ng·h/mL.

And the Cmax [1, 13]?
Its Cmax is 23.1 ng/mL.

And the Tmax [1, 13]?
Its Tmax is 40 min.

What about the AUC(0-t) ([1]; other: intraduodenal, ID dose 10 mg/kg, no absorption enhancer, last time point 2, 4, 6, 8, or 24 hours) of the same compound?
The AUC(0-t) was 62 ng·h/mL.
